Measurements from ChEMBL document CHEMBL3244037, “6-Aryl-4H-s-triazolo[4,3-a][1,4]benzodiazepines. Influence of 1-substitution on pharmacological activity” (J Med Chem, 1979).

Key:
Mus musculus [1] = test: Anticonvulsant activity in ip dosed albino CF1 mouse assessed as inhibition of bicucullin-induced tonic extensor convulsions; format: functional
Mus musculus [2] = test: Anticonvulsant activity in ip dosed albino CF1 mouse assessed as protection against pentylenetetrazole-induced clonic convulsions; format: functional
Mus musculus [3] = test: Inhibition of amphetamine aggregation toxicity in ip dosed albino CF1 mouse compound administered 1 hr prior to challenge measured after 2 hrs; format: functional
Mus musculus [4] = test: Reduction of hypoxic stress in ip dosed albino CF1 mouse assessed as prolongation of hypoxic survival time; format: functional
Mus musculus [5] = test: Inhibition of apomorphine-induced cage climbing in ip dosed albino CF1 mouse compound administered prior to challenge measured for 5 mins after 5 mins of challenge; format: functional
Mus musculus [6] = test: Inhibition of oxotremorine-induced hypothermia in ip dosed albino CF1 mouse; format: functional
Mus musculus [7] = test: Potentiation of apomorphine-induced gnawing in ip dosed albino CF1 mouse; format: organism-based
Mus musculus [8] = test: Hypothermic activity in ip dosed albino CF1 mouse assessed as effect on body temperature measured after 45 mins; format: functional; details: 0.75 h
Mus musculus [9] = test: […] activity in ip dosed albino CF1 mouse assessed as potentiation of gamma-butyrolactone-induced sleep; format: functional
Mus musculus [10] = test: Potentiation of yohimbine toxicity in ip dosed aggregated albino CF1 mouse; format: organism-based

SMILES | ED50 (Mus musculus [1]) | ED50 (Mus musculus [2]) | ED50 (Mus musculus [3]) | ED50 (Mus musculus [4]) | ED50 (Mus musculus [5]) | ED50 (Mus musculus [6]) | ED50 (Mus musculus [7]) | ED50 (Mus musculus [8]) | ED50 (Mus musculus [9]) | ED50 (Mus musculus [10])
CCN1CCN(c2nnc3n2-c2ccc(Cl)cc2C(c2ccccc2)=NC3)CC1 | 1.9 mg/kg | 0.9 mg/kg | > 50 mg/kg | 25 mg/kg | > 50 mg/kg | 0.2 mg/kg | 29.7 mg/kg | 42 mg/kg | 0.6 mg/kg | > 50 mg/kg
Cc1nnc2n1-c1ccc(Br)cc1C(c1ccccc1)=NC2 | 0.5 mg/kg | 0.6 mg/kg | > 50 mg/kg | 2 mg/kg | 20 mg/kg | > 50 mg/kg | > 50 mg/kg | 20 mg/kg | 0.8 mg/kg | > 50 mg/kg
Clc1ccc2c(c1)C(c1ccccc1)=NCc1nnc(N3CCOCC3)n1-2 | 3.1 mg/kg | 2.6 mg/kg | > 50 mg/kg | > 50 mg/kg | 40 mg/kg | 35.4 mg/kg | 35.4 mg/kg | 7 mg/kg | 4.4 mg/kg | > 50 mg/kg
Nc1nnc2n1-c1ccc(Cl)cc1C(c1ccccc1)=NC2 | 20 mg/kg | 14 mg/kg | > 50 mg/kg | > 50 mg/kg | > 50 mg/kg | > 50 mg/kg | > 50 mg/kg | 9 mg/kg | 2 mg/kg | > 50 mg/kg
COc1nnc2n1-c1ccc(Cl)cc1C(c1ccccc1)=NC2 | 0.5 mg/kg | 0.14 mg/kg | > 50 mg/kg | > 50 mg/kg | > 50 mg/kg | > 50 mg/kg | > 50 mg/kg | 10 mg/kg | 0.1 mg/kg | > 50 mg/kg
OCc1nnc2n1-c1ccc(Cl)cc1C(c1ccccc1Cl)=NC2 | 0.02 mg/kg | 0.045 mg/kg | > 50 mg/kg | 0.06 mg/kg | > 50 mg/kg | > 50 mg/kg | > 50 mg/kg | 7 mg/kg | 0.01 mg/kg | > 50 mg/kg
Clc1ccc2c(c1)C(c1ccccc1)=NCc1nnc(N3CCN(c4ccccc4)CC3)n1-2 | > 50 mg/kg | > 50 mg/kg | > 50 mg/kg | > 50 mg/kg | > 50 mg/kg | > 50 mg/kg | > 50 mg/kg | > 50 mg/kg | > 50 mg/kg | > 50 mg/kg
CN1CCN(c2nnc3n2-c2ccc(Cl)cc2C(c2ccccc2)=NC3)CC1 | 10.5 mg/kg | 1.6 mg/kg | > 50 mg/kg | > 50 mg/kg | > 50 mg/kg | 7.4 mg/kg | 17.7 mg/kg | > 50 mg/kg | 0.7 mg/kg | > 50 mg/kg
CCOCc1nnc2n1-c1ccc(Cl)cc1C(c1ccccc1)=NC2 | 3 mg/kg | 1.4 mg/kg | > 50 mg/kg | 10 mg/kg | > 50 mg/kg | > 50 mg/kg | > 50 mg/kg | 40 mg/kg | 0.9 mg/kg | > 50 mg/kg
Clc1ccc2c(c1)C(c1ccccc1)=NCc1nnc(Br)n1-2 | 3 mg/kg | 2.3 mg/kg | > 50 mg/kg | 6 mg/kg | > 50 mg/kg | > 50 mg/kg | > 50 mg/kg | > 50 mg/kg | 2 mg/kg | > 50 mg/kg
CC1N=C(c2ccccc2)c2cc(Cl)ccc2-n2c(Br)nnc21 (centres undefined) | 1.9 mg/kg | 3.7 mg/kg | > 50 mg/kg | > 50 mg/kg | > 50 mg/kg | > 50 mg/kg | > 50 mg/kg | > 50 mg/kg | 3.1 mg/kg | > 50 mg/kg
CC1N=C(c2ccccc2)c2cc(Cl)ccc2-n2c1nnc2N1CCN(C)CC1 (centres undefined) | 2.6 mg/kg | 3.1 mg/kg | > 50 mg/kg | 4.4 mg/kg | 50 mg/kg | 4.4 mg/kg | > 50 mg/kg | 29.7 mg/kg | 0.7 mg/kg | 8.8 mg/kg
CN1CCN(c2nnc3n2-c2ccc(Cl)cc2C(c2ccccc2Cl)=NC3)CC1 | 0.06 mg/kg | 0.03 mg/kg | > 50 mg/kg | 0.011 mg/kg | > 50 mg/kg | 4.4 mg/kg | > 50 mg/kg | 3.1 mg/kg | 0.035 mg/kg | 35.4 mg/kg
OCCN1CCN(c2nnc3n2-c2ccccc2C(c2ccccc2Cl)=NC3)CC1 | 6 mg/kg | 3 mg/kg | > 50 mg/kg | 0.9 mg/kg | > 50 mg/kg | 40 mg/kg | > 50 mg/kg | 2 mg/kg | 3 mg/kg | 30 mg/kg
Cc1nnc2n1-c1ccc(Cl)cc1C(c1ccccc1)=NC2 [ALPRAZOLAM] | 0.2 mg/kg | 0.1 mg/kg | > 50 mg/kg | 0.2 mg/kg | > 50 mg/kg | > 50 mg/kg | > 50 mg/kg | > 50 mg/kg | 0.08 mg/kg | > 50 mg/kg
Clc1ccccc1C1=NCc2nnc(N3CCOCC3)n2-c2ccccc21 | 10.5 mg/kg | 1.6 mg/kg | > 50 mg/kg | 0.015 mg/kg | > 50 mg/kg | > 50 mg/kg | > 50 mg/kg | > 50 mg/kg | 0.8 mg/kg | > 50 mg/kg

SMILES | ED50 (Mus musculus [1]) | ED50 (Mus musculus [2]) | ED50 (Mus musculus [3]) | ED50 (Mus musculus [4]) | ED50 (Mus musculus [5]) | ED50 (Mus musculus [6]) | ED50 (Mus musculus [7]) | ED50 (Mus musculus [8]) | ED50 (Mus musculus [9]) | ED50 (Mus musculus [10])
CN1CCN(c2nnc3n2-c2ccccc2C(c2ccccc2)=NC3)CC1 | > 50 mg/kg | 14.9 mg/kg | > 50 mg/kg | > 50 mg/kg | 25 mg/kg | 35.4 mg/kg | > 50 mg/kg | 12.5 mg/kg | > 50 mg/kg | > 50 mg/kg
COCc1nnc2n1-c1ccc(Cl)cc1C(c1ccccc1)=NC2 | 0.6 mg/kg | 2 mg/kg | > 50 mg/kg | 20 mg/kg | > 50 mg/kg | > 50 mg/kg | > 50 mg/kg | 30 mg/kg | 2 mg/kg | > 50 mg/kg
CC1N=C(c2ccccc2)c2cc(Cl)ccc2-n2cnnc21 (centres undefined) | 4.4 mg/kg | 3.7 mg/kg | > 50 mg/kg | 42 mg/kg | > 50 mg/kg | 7.4 mg/kg | > 50 mg/kg | 10.5 mg/kg | 0.6 mg/kg | > 50 mg/kg
c1ccc(C2=NCc3nnc(N4CCOCC4)n3-c3ccccc32)cc1 | > 50 mg/kg | 9 mg/kg | > 50 mg/kg | > 50 mg/kg | > 50 mg/kg | > 50 mg/kg | > 50 mg/kg | > 50 mg/kg | 20 mg/kg | > 50 mg/kg
N#CCc1nnc2n1-c1ccc(Cl)cc1C(c1ccccc1)=NC2 | 0.2 mg/kg | 0.63 mg/kg | > 50 mg/kg | 2 mg/kg | 40 mg/kg | > 50 mg/kg | > 50 mg/kg | > 50 mg/kg | 0.07 mg/kg | > 50 mg/kg
CC1=NC(c2ccccc2)c2cc(Cl)ccc2-n2c1nnc2N1CCN(C)CC1 (centres undefined) | > 50 mg/kg | > 50 mg/kg | > 50 mg/kg | – | > 50 mg/kg | 40 mg/kg | > 50 mg/kg | > 50 mg/kg | > 50 mg/kg | > 50 mg/kg
CN1CCN(c2nnc3n2-c2ccccc2C(c2ccccc2Cl)=NC3)CC1 | > 25 mg/kg | 6.2 mg/kg | > 25 mg/kg | 1.1 mg/kg | 4.4 mg/kg | > 25 mg/kg | > 25 mg/kg | 0.2 mg/kg | > 25 mg/kg | > 25 mg/kg
COC(=O)Cc1nnc2n1-c1ccc(Cl)cc1C(c1ccccc1)=NC2 | > 50 mg/kg | > 50 mg/kg | > 50 mg/kg | > 50 mg/kg | > 50 mg/kg | > 50 mg/kg | > 50 mg/kg | > 50 mg/kg | > 50 mg/kg | > 50 mg/kg
CSc1nnc2n1-c1ccc(Cl)cc1C(c1ccccc1)=NC2 | 10 mg/kg | 8 mg/kg | > 50 mg/kg | 10 mg/kg | > 50 mg/kg | > 50 mg/kg | > 50 mg/kg | 10 mg/kg | 0.8 mg/kg | > 50 mg/kg
CC1N=C(c2ccccc2)c2cc(Cl)ccc2-n2c1nnc2N1CCOCC1 (centres undefined) | 3 mg/kg | 0.4 mg/kg | > 50 mg/kg | 3 mg/kg | > 50 mg/kg | 10 mg/kg | > 50 mg/kg | > 50 mg/kg | 0.7 mg/kg | 20 mg/kg
N#Cc1nnc2n1-c1ccc(Cl)cc1C(c1ccccc1)=NC2 | 3 mg/kg | – | > 50 mg/kg | > 50 mg/kg | > 50 mg/kg | > 50 mg/kg | > 50 mg/kg | 10 mg/kg | 4 mg/kg | > 50 mg/kg
Cc1nnc2n1-c1ccc(Br)cc1C(c1ccccn1)=NC2 | 0.24 mg/kg | 0.12 mg/kg | – | – | – | > 50 mg/kg | > 50 mg/kg | – | 0.035 mg/kg | > 50 mg/kg
CC1=NC(c2ccccc2)c2cc(Cl)ccc2-n2c1nnc2N1CCOCC1 (centres undefined) | > 50 mg/kg | > 50 mg/kg | > 50 mg/kg | – | > 50 mg/kg | > 50 mg/kg | > 50 mg/kg | > 50 mg/kg | > 50 mg/kg | > 50 mg/kg
CN(C)CCCN1c2ccccc2Sc2ccc(Cl)cc21 [CHLORPROMAZINE] | 50 mg/kg | > 50 mg/kg | 1 mg/kg | > 50 mg/kg | 1 mg/kg | 0.9 mg/kg | 1 mg/kg | 1 mg/kg | 0.5 mg/kg | –
CN(C)CCCN1c2ccccc2CCc2ccccc21.Cl [IMIPRAMINE HYDROCHLORIDE] | 21 mg/kg | – | > 50 mg/kg | – | – | 1 mg/kg | 1 mg/kg | > 50 mg/kg | 18 mg/kg | 4 mg/kg
Cc1nnc2n1-c1ccc(Cl)cc1C(c1ccccc1Cl)=NC2 [TRIAZOLAM] | – | 0.07 mg/kg | – | 0.07 mg/kg | – | > 50 mg/kg | > 50 mg/kg | – | – | > 50 mg/kg
